# Reference: patent US9347942B2, “Ultrasensitive cell based sensors and uses thereof” (CANVAX BIOTECH SL, priority 2010, dated 2016)
# Key:
# CHRM2 = molecular target: T1, CHRM2 (Homo sapiens, UniProt P08172); experiment: Number of steps needed, 384 well mix and read assay (Example 13); type: cell-based; settings: carbachol 10 uM, 5.000 cells, only 15 uL of medium aspirated, 30 minutes
# T1 construct: the entire human GPCR; mouse immunoglobulin kappa signal peptide (N); expressed in transfected cells
# T1 sequence (P08172 2-466): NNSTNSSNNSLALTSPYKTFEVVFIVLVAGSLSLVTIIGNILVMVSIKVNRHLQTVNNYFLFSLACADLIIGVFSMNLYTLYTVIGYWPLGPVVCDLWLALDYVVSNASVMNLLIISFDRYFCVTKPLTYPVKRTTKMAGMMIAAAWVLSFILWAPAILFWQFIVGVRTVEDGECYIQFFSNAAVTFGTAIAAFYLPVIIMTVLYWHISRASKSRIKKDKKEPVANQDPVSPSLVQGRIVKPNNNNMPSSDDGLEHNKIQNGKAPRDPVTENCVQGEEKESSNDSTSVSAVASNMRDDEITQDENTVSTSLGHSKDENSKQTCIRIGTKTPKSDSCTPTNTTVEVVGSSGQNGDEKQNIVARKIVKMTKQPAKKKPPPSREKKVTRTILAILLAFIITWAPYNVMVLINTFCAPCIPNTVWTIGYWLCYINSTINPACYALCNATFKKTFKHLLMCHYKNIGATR
# Text: This experiment was designed to test how many steps are needed for an assay with the cell based sensor, in particular if a washing step is needed before assay. As the RBL-2H3 is an adherent cell line at least one step of aspiration of cell culture medium is needed. If all cell culture medium is aspirated then cells should become dry and eventually die in particular if there is a time interval between aspiration and addition of compounds to test for exocytosis. For this reason an additional treatment was included were not all cell culture medium is aspirated. But if not all the cell culture medium is aspirated then some of the reporter secreted by cells after overnight culture contributes to basal exocytosis. CHRM2 and granzyme B expressing cells from example #12 were used in this experiment but cells were seeded 16 hours before experiment at 5.000 cells per well of a 384 well plate with black walls in 20 uL of culture medium. Before experiment three treatments were made: (1) discarding all the 20 uL of medium without washing; (2) discarding only 15 uL of cell culture medium and (3) discarding only 15 uL of cell culture medium and washing of the cells using 75 uL of Hanks Balanced Salt Solution (HBSS) containing 0.1% BSA and aspiration of 75 uL of washing buffer. […] Plates were incubated at 37° C. in the fluorescence reader and read at 0, 15, 30, 45 and 60 minutes. […]
# hIL8 receptor (hIL8RA) = molecular target: T2, hIL8 receptor (hIL8RA) (Homo sapiens, UniProt P25024); experiment: Multiplex assay, Sensor A channel (hIL8RA and human granzyme A) (Example 14); type: cell-based; settings: Condition 4: Sensor A 12500 + Sensor B 5000 cells, carbachol 10 uM, no IL8, granzyme A substrate 1 uM
# T2 construct: the entire human GPCR; mouse immunoglobulin kappa signal peptide (N); expressed in transfected cells
# T2 sequence (P25024 3-350 limits assumed): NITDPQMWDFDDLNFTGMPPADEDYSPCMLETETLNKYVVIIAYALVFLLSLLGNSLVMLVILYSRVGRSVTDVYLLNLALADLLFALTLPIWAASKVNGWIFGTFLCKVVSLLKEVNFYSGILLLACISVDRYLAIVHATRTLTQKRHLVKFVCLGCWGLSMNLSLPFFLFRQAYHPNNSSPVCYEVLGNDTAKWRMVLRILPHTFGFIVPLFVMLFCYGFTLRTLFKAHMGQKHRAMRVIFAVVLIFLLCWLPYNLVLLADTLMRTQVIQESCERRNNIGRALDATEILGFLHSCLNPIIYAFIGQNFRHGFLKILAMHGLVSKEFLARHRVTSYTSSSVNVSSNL
# Text: The principle of multiplex reactions is illustrated in FIG. 5. RBL2H3 cells were stably transfected with a pair of a GPCR as exocytosis modulator and a granzyme as a granule stored reporter as described in example 9. Combinations included were: hIL8 receptor (hIL8RA) and human granzyme A (Sensor A) and CHRM2 and granzyme B expressing cells of example #12 (Sensor B). Human IL8 was used as agonist of hll_8R while carbachol was used as CHRM2 agonist. […] As both substrates uses the same pair of fluorophore (FAM) and quencher (TAMRA) only one substrate could be added to reaction vessel for specific detection at 535 nm after excitation at 485 nm. […] Sensors, agonists and substrates were mixed in a total volume of 20 uL of HBSS in a black walled 384 well microplate and the microplate was incubated at 37 Celsius degrees in a BMG-Labtech microplate fluorimeter and read at 0, 15, 30, 45 and 60 minutes.
structure (smiles),measurement,setting,value
"C[N+](C)(C)CCOC(N)=O [Carbachol, carbachol]",signal to background,CHRM2,8-10
same,Signal to background at 30 min,hIL8 receptor (hIL8RA),0.78
